In PMC4842970, “Bioactivity Focus of α-Cyano-4-hydroxycinnamic acid (CHCA) Leads to Effective Multifunctional Aldose Reductase Inhibitors” (Scientific Reports, 2016):

Legend:
sorbitol content = test: Sorbitol content in glucose-treated embryos; type: in vivo; details: glucose-treated chick embryos, EDD 5, dose 1 μM
Description: As expected, treatment of 5f decreased ALR2 activity in a dose-dependent manner. […] However, EDA, which is a clinical radical scavenger, was shown no effect on the inhibition of ALR2.
Embryos on EDD 5 were homogenized with chicken saline and centrifuged (4 °C, 10000 rpm, 10 min). The supernatant was used for measuring AR activity in the sample. A chicken AR ELISA kit (Jianglai Biotechnology, China) were used for detection. The concentration of AR in the samples was then determined by comparing the OD of the samples to the standard curve. The sorbitol contents of the chick embryo were determined by a Sorbitol Colorimetric Assay Kit (BioVision, USA). In the assay, sorbitol is oxidized to fructose with the proportional development of intense color with an absorbance maximum at 560 nm.

human ALR2 = biological target: T1, human ALR2 (Homo sapiens, UniProt P15121); test: ALR2 inhibition (in vitro reduction of D,L-glyceraldehyde); type: biochemical
T1 construct: purchased WAKO Pure Chemical Industries, Ltd. (Japan); host or cells: baculovirus-insect cell expression system
Description: Human ALR2 was purchased from WAKO Pure Chemical Industries, Ltd. (Japan), which was purified from the culture medium of baculovirus-insect cell expression system. […] ALR2 inhibition was determined spectrophotometrically according to the procedure described previously.

[1] = test system: oxidative stress (ROS, MDA, ORAC); test: ROS generation, MDA and ORAC level in chick embryos; type: in vivo; details: glucose-treated chick embryos
Description: It has been reported that hyperglycemia increased the production of ROS. Blocking the generation of ROS could at least partially prevent the possible damage of hyperglycemia. No doubt, oxidative stress will be induced in glucose treated embryos. This conclusion was confirmed by the determination of ROS and malondialdehyde (MDA) levels, and the anti-oxidation ability in chick embryos on EDD 5. […] However, treatment of 5f decreased both levels of ROS and MDA in a dose-dependent manner.
In addition, the ORAC level is indicative of the anti-oxidative capacity.
ROS generation ratios in the eyes of EDD 5 chick embryos were detected with 5 μmol 2′,7′-dichlorofluorescein-diacetate (DCFH-DA, Sigma-Aldrich). The peroxide content was determined by measuring thiobarbituric-acid-reactive substances (TBARS) with a commercial MDA kit (Nanjing Jiancheng Institute of Biotechnology, Nanjing, China). The procedures for the ORAC assay were modified from the previously described method. The automated ORAC assay was carried out on a decay of the fluorescein signal and determined with an excitation/emission filter pair of 485/527 nm in a GENios Lueifcrase microplate reader (TECAN) at 37 °C. Final results were calculated on the basis of the difference in the area under the fluorescein decay curve between the blank and each sample.

Pax3 = Pax3 protein expression in chick embryos (Western blotting); type: in vivo; details: glucose-treated chick embryos, EDD 5
Description: Figure 4 5f restored neural tube development and marker expression in chick embryos on EDD 5. Glucose concentration (A) and Pax3 protein expression (B) were determined in chick embryos. The plasma glucose concentration was measured using a glucose oxidase-coupled spectrophotometric assay kit. Proteins were detected using the monoclonal antibody anti-Pax3 diluted 1:1000 (DSHB, USA) and visualized using anti-mouse IgG conjugated with horseradish peroxidase (HRP) and Pierce ECL Western Blotting Substrate (Thermo Fisher Scientific, USA) as the substrate of HRP. […] Values were expressed as mean ± SD in each group (n = 10). *P < 0.05, **P < 0.01 vs. control. ^#P < 0.05, ^##P < 0.01 vs. glucose.
The eyes of EDD 5 chick embryos were separated and lysed in lysis buffer (Beyotime Institute of Biotechnology, China) on ice for 10 min. After centrifugation of the cell suspension at 12000 rpm for 15 min, the protein content of the supernatant was determined with a Pierce BCA protein assay kit (Thermo Fisher Scientific, USA) to ensure equal sample loading. […] Proteins were detected using the monoclonal antibody anti-Pax3 diluted 1:1000 (DSHB, USA) and visualized using anti-mouse IgG conjugated with horseradish peroxidase (HRP) and Pierce ECL Western Blotting Substrate (Thermo Fisher Scientific, USA) as the substrate of HRP.

ALR1 = biological target: T2, ALR1 (Gallus gallus, UniProt Q5ZK84); test: ALR1 activity in glucose-treated embryos (chicken ALR1 ELISA kit); type: in vivo; details: glucose-treated chick embryos, EDD 5, compared with the model group
T2 construct: Embryos on EDD 5 were homogenized with chicken saline and centrifuged; from tissue; host or cells: EDD 5 chick (leghorn) embryo homogenate supernatant
T2 sequence (Q5ZK84 1-327): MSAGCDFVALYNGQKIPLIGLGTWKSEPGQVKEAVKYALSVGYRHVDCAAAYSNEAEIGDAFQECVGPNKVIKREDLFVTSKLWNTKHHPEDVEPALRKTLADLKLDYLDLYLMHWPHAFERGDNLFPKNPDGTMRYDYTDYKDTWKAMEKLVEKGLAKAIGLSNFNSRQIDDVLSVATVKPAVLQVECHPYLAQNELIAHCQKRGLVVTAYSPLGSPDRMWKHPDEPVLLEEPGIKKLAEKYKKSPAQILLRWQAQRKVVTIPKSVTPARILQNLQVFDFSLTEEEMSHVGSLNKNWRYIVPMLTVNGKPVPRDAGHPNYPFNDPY
Description: Embryos on EDD 5 were homogenized with chicken saline and centrifuged (4 °C, 10000 rpm, 10 min). The supernatant was used for measuring ALR1 activity in the sample. A chicken ALR1 ELISA kit (Jianglai Biotechnology, China) were used for detection. The concentration of ALR1 in the samples was then determined by comparing the OD of the samples to the standard curve.

chick embryo = test: Chick embryo model of hyperglycemia: mortality, NTD rate, body weight; type: in vivo; details: glucose 0.4 mmol/egg
Description: In order to evaluate further the potential of 5f as an agent to treat diseases caused by high glucose inside the system, a chick embryo model of treatment with high glucose was set up.
Fertilized leghorn eggs were purchased from the Avian Farm of the South China Agriculture University (Guangzhou, China). Before the injection of glucose (Sigma–Aldrich, MO, USA), the eggs were incubated in a humidified incubator (Grumbach, Germany) at 37 °C with 60% humidity until the embryos reached the desired stage. […] Glucose was dissolved in 200 μL chicken saline and injected on EDD 1. Mortality, abnormality and body weight measurements were made on EDD 5. Embryos were removed from their eggs and weighed. The percent mortality was measured by counting the number of dead versus all embryos. The rate of NTD of the embryos was assessed by the number of NTD versus survival embryos.

CC(=O)N[C@H](COCc1ccccc1)C(=O)NCCCNC(=O)/C(C#N)=C/c1ccc(O)cc1 [Compound 5f, (R,E) - N - (3-(2-acetamido-3-(benzyloxy)propanamido)propyl)-2-cyano-3-(4-hydroxyphenyl)acrylamide]
sorbitol content in embryo (sorbitol content): decreased significantly | IC50 (human ALR2; human ALR2, D,L-glyceraldehyde as substrate, read-out: IC50 (ALR2 inhibition)): 72.7 ± 1.6 nM | ALR2 inhibition activity relative to 5d (human ALR2; ratio of inhibition activity vs 5d): about 5 times | ORAC level (anti-oxidative capacity) of embryo ([1]; EDD 5): recovered | MDA level in embryo ([1]; EDD 5, dose 1 μM): to a normal state | ROS level in embryo ([1]; EDD 5, dose 1 μM): to a normal state | Pax3 expression (Pax3): restored | ALR1 level in embryo (ALR1): no obvious change | Body weight (chick embryo; EDD 5, dose 10 nM (CL)): 291.3 ± 10.2 mg | Death (/n) (chick embryo; EDD 5, dose 10 nM (CL)): 35.0% | NTD (/survival) (chick embryo; EDD 5, dose 10 nM (CL)): 46.20% | Body weight (chick embryo; EDD 5, dose 100 nM (CM)): 295.9 ± 13.2 mg | Death (/n) (chick embryo; EDD 5, dose 100 nM (CM)): 30.0% | NTD (/survival) (chick embryo; EDD 5, dose 100 nM (CM)): 35.7% | Body weight (chick embryo; EDD 5, dose 1 μM): 307.9 ± 10.5 mg | Death (/n) (chick embryo; EDD 5, dose 1 μM): 25.0% | NTD (/survival) (chick embryo; EDD 5, dose 1 μM): 20.0%
